Results taken from patent US10471118B2, “Retinylamine derivitives for treatment of ocular disorders” (CASE WESTERN RESERVE UNIVERSITY, priority 2014, dated 2019).
“Also recorded” adds a separate entry of the source.

Legend:
Abca4^−/−Rdh8^−/− mice = assay: Light-induced retinal degeneration in Abca4-/-Rdh8-/- mice (OCT, ERG, histology), Example 1; type: in vivo, mouse; conditions: for protection against light-induced retinal degeneration (ONL thickness from OCT): 0.875 μmol per mouse oral gavage 16 h before 10,000 lux 1 h, OCT after 3 days in dark
Method: Abca4^−/−Rdh8^−/− double knockout mice were housed in the animal facility at the School of Medicine, Case Western Reserve University, where they were maintained under either complete darkness or a 12-h light (−10 1×) and 12-h dark cycle. All retinylamine tested were dissolved or suspended in 100 μl of vegetable oil with less than 10% (v/v) DMSO and were administered by oral gavage with a 22-gauge feeding needle. Experimental manipulations in the dark were done under dim red light transmitted through a Kodak No. 1 safelight filter (transmittance >560 nm). All animal procedures and experiments were approved by the Case Western Reserve University Animal Care Committees and conformed to recommendations of the American Veterinary Medical Association Panel on Euthanasia and the Association of Research for Vision and Ophthalmology.
After dark adaptation for 48 h, one or two Abca4^−/−Rdh8^−/− mice with pupils dilated by 1% tropicamide were exposed to fluorescent light (10,000 1×; 150-W spiral lamp, Commercial Electric) for 60 min in a white plastic bucket (Papersmith) with food and water and then kept in the dark. Histological and biochemical experiments were performed 3 days after exposure.
Ultra-high resolution spectral-domain OCT (SD-OCT; Bioptigen) and Heidelberg Retinal Angiograph II SLO (Heidelberg Engineering) were used for in vivo imaging of mouse retinas. Mice were anesthetized by intraperitoneal injection of a cocktail (20 μl g-1 body weight) containing ketamine (6 mg ml-1) and xylazine (0.44 mg ml-1) in 10 mM sodium phosphate, pH 7.2, and 100 mM NaCl. Pupils were dilated with 1% tropicamide. Four pictures acquired in the B-scan mode were used to construct each final averaged SD-OCT image.
All ERG procedures were performed by published methods. For single-flash recording, the duration of white-light flash stimuli (from 20 μs to 1 ms) was adjusted to provide a range of illumination intensities (from −3.7 to 1.6 log cd s m-2). Three to five recordings were made at sufficient intervals between flash stimuli (from 3 s to 1 min) to allow recovery from any photobleaching effects.
Mouse eyes were fixed for 24 h by rocking in a fixation solution (2 ml/eye) containing 4% paraformaldehyde and 1% glutaraldehyde in PBS. The tissue was processed through a series of ethanols, xylenes, and paraffins in a Tissue-Tek VIP automatic processor (Sakura, Torrance, Calif., USA), and 5-μm sections were cut using a Microm HM355 paraffin microtome (Thermo Fisher Scientific, Waltham, Mass., USA) and stained with hematoxylin and eosin (H&E) stain. Images of stained sections were captured by a Leica CTR6000 microscope attached to a CCD camera (Micropublisher 5.0 RTV, Qimaging Surray BC, Canada).
The effectiveness of the retinylamine derivatives on preventing light-induced retinal degeneration was tested in four-week old Abca4^−/−Rdh8^−/− mice according to the experimental scheme depicted in FIG. 1. After the mice were dark-adapted for 48 h, the drugs were gavaged at a dose 0.875 μmol/per mouse, which was selected based on the half protection dose for retinylamine after a dosing experiment, FIG. 2. Retinylamine was tested as a control at the same dose. […] Retinal integrity was assessed using optical coherence tomography (OCT). […] The mice without any treatment had photoreceptor cells completely destroyed after light illumination, and were used as a negative control. The retinal integrity was determined based on the thickness of outer nuclear layer (ONL) of the retinas measured from the OCT images. Reduced ONL thickness signifies the decreasing number of photoreceptors and retinal degeneration.

RPE65 = RPE65 (Bos taurus, UniProt Q28175); assay: Retinoid isomerase activity in RPE microsomes (11-cis-retinol production); type: biochemical, Bovine; conditions: 0.5 to 10 μM compound, 10 μM all-trans-retinol, 1 h
Method: To destroy endogenous retinoids, 200-μl aliquots of RPE microsomes placed in a quartz cuvette were irradiated for 5 min at 0° C. with a ChromatoUVE transilluminator (model TM-15; UVP).
All assays were performed under dim red light. 2 μl of the synthesized retinylamine derivatives (RF and RVG) (DMF, 0.5-10 mM) was added into 10 mM Bis-Tris propane buffer (pH 7.4) containing 150 μg RPE microsomes, 1% BSA, 1 mM disodium pyrophosphate and 20 μM apo Retinaldehyde-binding protein 1 (CRALBP). The resulting mixture was pre-incubated at room temperature for 5 min. Then 1 μl all-trans-retinol (DMF, 20 mM) was added. The resulting mixture was incubated at 37° C. for 1 h. Reaction was quenched by addition of 300 μl methanol, and the products were extracted with 300 μl hexanes. Production of 11-cis-retinol was quantified by normal phase HPLC with 10% (v/v) ethyl acetate in hexanes as eluent. Flow rate was 1.4 ml·min^−1 Retinoids were detected by monitoring absorbance at 325 nm and quantified base on a standard curve reflecting relation between amount of 11-cis-retinol and area under the corresponding chromatography peak.

Caco-2 cells = assay: Caco-2 cell monolayer transport; type: in vitro ADME, human; conditions: 500 μM apical, PBS pH 6, within 24 h, compared with Ret-NH2
Method: 1. Coating and preparing culture inserts for seeding: Rat tail collagen was diluted 1:9 with 0.5% acetic acid. The resulting solution (200 ul) was added to each insert to coat the surface. The inserts were air-dried overnight, followed by a UV irradiation for 45 min to sterilize the inserts. 2. Seeding cells onto an insert: A concentration of 4×10^5 cells/well EMEM solution containing 20% FBS was added to the precoated insert. Another 2 ml of fresh EMEM media was added to the other side (bottom). The media was changed after 1 day of incubation and every other day after that. The cells were cultured for 21 days until they were mature. 3. Transport experiment: The media was aspirated out. The cell monolayers were washed with PBS three times. Cells were further incubated with PBS for 1 h under 37° C. to allow them to release all the materials that may be taken up during incubation. PBS solution was removed and the prodrug solution (500 μM in 2.0 ml PBS (pH=6) solution) was loaded to the apical side. The basolateral side was loaded with 2.5 ml fresh PBS solution. The plates were incubated under 37° C. Samples of 200 μl were withdrawn from the basolateral side at several time points within 24 h. The drug release amount was determined by UV spectrometer.

ARPE19 cells = assay: ARPE19 cell uptake; type: cell-based, human; conditions: 10 μM, 16 h, compared with Ret-NH2
Method: The ARPE19 cells (human RPE cells purchased from American Type Culture Collection) were plated in 6-well plates using Dulbecco's Modified Eagle Medium (DMEM) and allowed to grow to 90% confluency. The cells were then incubated with DMEM containing 10 μM derivatives for 16 hours under dark room conditions. Control group was cell without drug. Medium was removed and cells were washed three times by PBS after 16 h of incubation. Cells were then collected. Samples were treated with 400 μl of methanol, homogenized at 37° C. for 1 h, followed by a centrifugation. The 100 μl of the supernatant was analyzed by reverse phase HPLC. Reverse-phase HPLC (analytical C18 reverse column; 5 μm; 250 mm×4.6 mm; flow rate of 1.0 mL/min; 60:40 acetonitrile:H2O (v:v) with 0.05% trifluoroacetic acid; detection at 325 nm) was utilized to determine retinylamine or its derivative in […].

RPE65, sequence (Q28175 whole entry): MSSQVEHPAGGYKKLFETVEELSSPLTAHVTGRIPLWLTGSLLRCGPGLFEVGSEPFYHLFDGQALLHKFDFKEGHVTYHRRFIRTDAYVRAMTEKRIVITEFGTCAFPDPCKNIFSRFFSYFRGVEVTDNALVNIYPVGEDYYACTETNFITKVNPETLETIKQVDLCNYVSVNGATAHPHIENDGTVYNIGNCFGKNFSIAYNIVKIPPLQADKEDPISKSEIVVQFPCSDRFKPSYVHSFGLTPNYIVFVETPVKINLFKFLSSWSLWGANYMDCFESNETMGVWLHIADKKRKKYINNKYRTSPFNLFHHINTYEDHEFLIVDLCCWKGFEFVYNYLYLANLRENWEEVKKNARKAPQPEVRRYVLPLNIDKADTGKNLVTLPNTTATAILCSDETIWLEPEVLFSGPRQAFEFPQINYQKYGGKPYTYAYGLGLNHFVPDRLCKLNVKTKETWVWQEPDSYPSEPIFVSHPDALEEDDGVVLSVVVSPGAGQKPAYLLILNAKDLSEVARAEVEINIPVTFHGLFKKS

SMILES	protection against light-induced retinal degeneration (ONL thickness from OCT) (Abca4^−/−Rdh8^−/− mice)	protection against light-induced retinal degeneration (ONL thickness from OCT) (Abca4^−/−Rdh8^−/− mice; listed as phenylalanyl)	inhibition of RPE65 on 11-cis-retinol production (RPE65)	transport through the Caco-2 monolayer (Caco-2 cells)	uptake in ARPE19 cells (ARPE19 cells)	average scotopic a wave ERG peak amplitudes (Abca4^−/−Rdh8^−/− mice; 0.875 μmol per mouse 16 h prior to light illumination, evaluated 7 days later)	retina structure by histology (H&E) (Abca4^−/−Rdh8^−/− mice; treated before intense light exposure, 7 days after light exposure)
CC1=C(/C=C/C(C)=C/C=C/C(C)=C/CNC(=O)[C@@H](N)Cc2ccccc2)C(C)(C)CCC1 [RF, (S)-2-amino-N-((2E,4E,6E,8E)-3,7-dimethyl-9-(2,6,6-trimethylcyclohex-1-en-1-yl)nona-2,4,6,8-tetraen-1-yl)-3-phenylpropanamide]	low protecting effect	little protecting efficacy	partial inhibition, but not in a concentration dependent manner	significantly higher transport through the Caco-2 monolayer	higher uptake in ARPE19 cells than Ret-NH2		
CC1=C(/C=C/C(C)=C/C=C/C(C)=C/CNC(=O)[C@@H](NC(=O)CN)C(C)C)C(C)(C)CCC1 [RVG, (S)-2-(2-aminoacetamido)-N-((2E,4E,6E,8E)-3,7-dimethyl-9-(2,6,6-trimethylcyclohex-1-en-1-yl)nona-2,4,6,8-tetraen-1-yl)-3-methylbutanamide]	significant improvement on preventing light-induced retinopathy over retinyl amine		did not show significant inhibition	significantly higher transport through the Caco-2 monolayer	higher uptake in ARPE19 cells than Ret-NH2	virtually the same as those without light-illumination (NLI)	maintained intact retina structure; also recorded: protected Abca4^−/−Rdh8^−/− retina from light damage
CC1=C(/C=C/C(C)=C/C=C/C(C)=C/CN)C(C)(C)CCC1 [Ret-NH2, (2E,4E,6E,8E)-3,7-dimethyl-9-(2,6,6-trimethylcyclohex-1-en-1-yl)nona-2,4,6,8-tetraen-1-amine]			concentration dependent inhibition of RPE65				
